Experimental data as given in publication PMC7006766, “Coumarins from Magydaris pastinacea as inhibitors of the tumour-associated carbonic anhydrases IX and XII: isolation, biological studies and in silico evaluation” (Journal of Enzyme Inhibition and Medicinal Chemistry, 2020).
Like-named read-outs stand apart in the source and are kept apart here.

Columns and labels:
[1] = target: T1, hCA IX (Homo sapiens, UniProt Q16790); format: biochemical; conditions: for Ki: stopped flow, 6 h preincubation, mean of three assays
T1 construct: made in house

[2] = target: T2, hCA I (Homo sapiens, UniProt P00915); format: biochemical
T2 construct: made in house
T2 sequence (P00915 whole entry): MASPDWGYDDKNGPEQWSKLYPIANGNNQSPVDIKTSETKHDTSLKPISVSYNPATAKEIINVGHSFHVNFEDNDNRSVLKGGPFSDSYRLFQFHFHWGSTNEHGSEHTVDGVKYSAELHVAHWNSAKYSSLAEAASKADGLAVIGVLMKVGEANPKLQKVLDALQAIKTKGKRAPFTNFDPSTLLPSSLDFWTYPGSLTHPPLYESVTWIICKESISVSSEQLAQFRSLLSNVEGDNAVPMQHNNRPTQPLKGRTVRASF

[3] = target: T3, hCA XII (Homo sapiens, UniProt O43570); assay: biochemical; conditions: stopped flow, 6 h preincubation, mean of three assays
T3 sequence (O43570 25-354): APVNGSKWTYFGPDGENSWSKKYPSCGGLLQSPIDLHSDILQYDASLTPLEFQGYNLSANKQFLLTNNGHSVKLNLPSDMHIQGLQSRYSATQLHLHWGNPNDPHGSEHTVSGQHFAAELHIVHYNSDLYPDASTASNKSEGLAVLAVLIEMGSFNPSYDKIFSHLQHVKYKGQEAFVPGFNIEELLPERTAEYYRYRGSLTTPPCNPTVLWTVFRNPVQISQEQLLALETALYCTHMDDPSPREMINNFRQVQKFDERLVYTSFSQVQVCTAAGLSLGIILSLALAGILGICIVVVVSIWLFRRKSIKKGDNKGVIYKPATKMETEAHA

[4] = target: T4, hCA II (Homo sapiens, UniProt P00918); format: biochemical
T4 construct: made in house

[5] = test system: HeLa cells; assay: MTT cytotoxic assay in cancer HeLa cells; format: cell-based; conditions: Homo sapiens, read-out: IC50 (concentration of compound that reduces the cell viability to 50%)
Method: Human carcinoma HeLa cell line was obtained from the American Type Culture Collection (ATCC, Rockville, MD). Cells were grown in Dulbecco’s modified Eagle’s medium (DMEM) with high glucose, supplemented with 10% foetal calf serum (FCS), penicillin (100 units/mL)–streptomycin (100 μg/mL), and 2 mM L-glutamine in a 5% CO2 incubator at 37 °C. Subcultures of the HeLa cells were grown in T-75 culture flasks and passaged with a trypsin-EDTA solution. Cell culture materials were purchased from Invitrogen (Milan, Italy).
The in vitro cytotoxic effect of coumarins 5, 9–12, 15 was evaluated in cancer HeLa cells by the MTT (3-(4,5-dimethylthiazol-2-yl)-2,5-diphenyltetrazolium bromide) reduction assay. Cancer cells were seeded in 96-well plates (density of 3 × 10^4 cells/mL) in 100 μL of medium and cultured for 48 h (80% of cell confluence). Cells were subsequently incubated for 48 h with various concentrations (0.1–100 μM, dissolved in DMSO) of coumarins in culture medium (treated cells). Treated cells were compared for viability to untreated cells (control cells) and vehicle-treated cells (incubated for 48 h with an equivalent volume of DMSO; the maximal final concentration was 1%). After the cell medium removing and washing, cells were subjected to the MTT test[35]. After incubation (3 h), colour development was measured at 570 nm with an Infinite 200 auto microplate reader (Infinite 200, Tecan, Austria); the absorbance is proportional to the number of viable cells. Two independent experiments were performed.

[6] = target: T3, hCA XII
[7] = test system: 4T1 cells; conditions: encapsulated in nanoliposomes vs free compound; cited from earlier work
[8] = stopped flow, 6 h preincubation, mean of three assays, read-out: Ki hCA I
[9] = stopped flow, 6 h preincubation, mean of three assays, read-out: Ki hCA II

SMILES | Ki [1] [nM] | Ki [2, 8] [nM] | Ki [3] [nM] | Ki [4, 9] [nM] | IC50 ([5]; HeLa, 48 h) [nM] | Ki [2] [nM] | Ki [4] [nM] | Ki ratio XII/IX (selectivity index hCA IX over hCA XII) [1] | IC50 ([5]; HeLa cells, MTT, measured at 48 h, normoxic) [nM] | Ki ratio IX/XII ([6]; selectivity for hCA XII) | change of antiproliferative effect against 4T1 cells when encapsulated in nanoliposomes [7] | Ki ratio I/XII ([6]; selectivity over off-target CA I/II)
COc1c2ccoc2cc2oc(=O)ccc12 [Compound 1, begapten] | 1950 | > 10000 | 855 | > 10000 | – | – | – | – | – | – | – | –
COc1c2occc2cc2ccc(=O)oc12 [Compound 2, xanthotoxin] | 195 | > 10000 | 876 | > 10000 | – | – | – | – | – | – | – | –
COc1c2ccoc2c(OC)c2oc(=O)ccc12 [Compound 3, isopimpinellin] | 160 | > 10000 | 590 | > 10000 | – | – | – | – | – | – | – | –
C/C(=C\COc1c2occc2cc2ccc(=O)oc12)CO [Compound 4, E-trichoclin] | 2340 | > 10000 | 550 | > 10000 | – | – | – | – | – | – | – | –
COc1c2ccoc2c(OC/C=C(\C)CO)c2oc(=O)ccc12 [Compound 5, E-5-methoxy-trichoclin] | 1500 | > 10000 | 63.5 | > 10000 | > 100000 | – | – | – | – | – | – | –
CC(C)=CCOc1c2occc2cc2ccc(=O)oc12 [Compound 6, imperatorin] | 221 | > 10000 | 833 | > 10000 | – | – | – | – | – | – | – | –
COc1c2ccoc2c(OCC=C(C)C)c2oc(=O)ccc12 [Compound 7, phellopterin] | 202 | > 10000 | 787 | > 10000 | – | – | – | – | – | – | – | –
CC1(C)O[C@@H]1COc1c2occc2cc2ccc(=O)oc12 [Compound 8, heraclenin] | 162 | – | – | – | – | > 10000 | > 10000 | – | – | – | – | –
CC(C)(O)[C@H](O)COc1c2occc2cc2ccc(=O)oc12 [Compound 9, (-)-heraclenol] | 27.5 | > 10000 | 814 | > 10000 | > 100000 | – | – | – | – | – | – | –
CC(=O)O[C@@H](COc1c2occc2cc2ccc(=O)oc12)C(C)(C)O [Compound 10, (+)-heraclenol acetate] | 192 | > 10000 | > 10000 | > 10000 | – | – | – | > 52 | > 100000 | – | – | –
COc1cc2ccc(=O)oc2c2c1O[C@H](C(C)(C)O)C2 [Compound 11, Magydarin] | 151 | > 10000 | 623 | > 10000 | > 100000 | – | – | – | – | – | – | –
COc1ccc2ccc(=O)oc2c1CC=C(C)C [Compound 12, osthol] | 2470 | > 10000 | 74.5 | > 10000 | 98000 | – | – | – | – | – | – | –
COc1ccc2ccc(=O)oc2c1C[C@@H]1OC1(C)C [Compound 13, meranzin] | 1890 | > 10000 | > 10000 | > 10000 | – | – | – | > 5 | – | – | – | –
COc1ccc2ccc(=O)oc2c1C[C@H](OC(C)=O)C(C)(C)O [Compound 14, 2′-acetoxy-3′-hydroxy-osthol] | > 10000 | > 10000 | 291 | > 10000 | – | – | – | – | – | > 34 | – | –
CC(C)=CCC/C(C)=C/CC/C(C)=C/COc1ccc2ccc(=O)oc2c1 [Compound 15, umbelliprenin] | 266 | > 10000 | 5.8 | > 10000 | 75000 | – | – | – | – | – | increased by five folds | > 1724
